{
  "source": "patent EP0941220B1",
  "about": "“A PROCESS FOR RECOVERY OF ASCORBIC ACID” (Yissum Research And Development Company Of The Hebrew …, priority 1996, dated 1998)",
  "experiment": "Temperature sensitivity of carboxylic acid extraction by 0.5 mol/kg Alamine 304 + 10% octanol in kerosene",
  "format": "physicochemical",
  "details": "distribution coefficient at 30°C divided by that at 75°C",
  "excerpt": "Referring now to said patents and the teachings thereof, one finds that the process taught therein utilizes the effect of temperature on phosphoric and carboxylic acid extraction by amine-based extractants. The term \"amine\" as used herein means water-immiscible amine, with a total of at least 20 carbon atoms on its chains. Said patents teach that such amine-based extractants (ABE) lose much of their extraction efficiency upon temperature elevation. This loss of efficiency is referred to as \"temperature sensitivity of extraction\" (TS). The magnitude of this TS can be represented by the ratio of the distribution coefficient at the lower temperature (DT1) to the distribution coefficient at the higher temperature (DT2). High TS provides for the purification and the concentration of carboxylic acids through altering the temperature between extraction and back-extraction. The acid is extracted from a feed solution by an ABE at low temperature, and is then stripped or back-extracted with water at an elevated temperature. […] This process is referred to herein as the \"temperature swing process\" (TSP).",
  "data": [
    {"smiles": "CCC(=O)O", "note": "[Propionic, Propionic acid]", "values": [
      {"measurement": "TS in Equilibrium with Aqueous Solutions of (mol/kg) 0.05", "setting": "0.05 mol/kg equilibrium aqueous phase", "value": 1.7},
      {"measurement": "TS in Equilibrium with Aqueous Solutions of (mol/kg) 0.2", "setting": "0.2 mol/kg equilibrium aqueous phase", "value": 1.5},
      {"measurement": "TS in Equilibrium with Aqueous Solutions of (mol/kg) 0.3", "setting": "0.3 mol/kg equilibrium aqueous phase", "value": 1.3},
      {"measurement": "TS in Equilibrium with Aqueous Solutions of (mol/kg) 0.475", "setting": "0.475 mol/kg equilibrium aqueous phase", "value": 1.1}
    ]}
  ]
}
